We go through three molecules from patent publication US11311593B2, “Root extracts from plants of the Morus genus and uses of same” (PLANT ADVANCED TECHNOLOGIES PAT, priority 2017, dated 2022).

SMILES strings stand for the structures.

In experiment [1] the test system is collagenase obtained from Clostridium Histolyticum. Description: Target Binding affinity test for collagenase. As to conditions: ligands in non-stimulated M. alba root extract; moracenin B = reference ligand. The procedure:
A root extract of Morus alba was prepared in accordance with the protocol described in Example 2.1. The Target Binding® method used was that of Example 2.3 which is described in patent application FR 1 670 545. The experimental protocol was as follows:
The target, a 6.25 mg/mL solution of collagenase obtained from Clostridium histolyticum, was prepared by dissolving lyophilized enzyme powder in 50 mM saline phosphate buffer with a pH of 7.5. The sample to be analyzed corresponded to the supernatant of the root extract obtained in accordance with Example 2.1. It could be centrifuged once again before use, at 21000 g for 15 min, in order to remove any traces of solid particles. A reference sample was also prepared by diluting the sample to be analyzed 10-fold in a solution of water and a quarter of the volume of acetonitrile.
1. Preconditioning step—Wells with a filtering membrane were preconditioned with a volume of 500 μL of a saline phosphate buffer which was passed through the membrane by centrifuging at 14000 g for 60 seconds.
2. Binding step—A volume of 92.5 μL of the solution obtained from the pretreatment step was mixed with 7.5 μL of the sample to be analyzed for 10 min in a plastic Eppendorf tube.
3. Washing step—The mixture of the enzyme and the sample to be analyzed was deposited in a well that had been preconditioned in the preconditioning step, then centrifuged at 14000 g until most of the solvent had been eliminated. The enzyme-ligand complexes remained on the surface of the filter membrane, then were re-suspended in a volume of 100 μL of the same saline phosphate buffer solution and centrifuged at 14000 g until the solvent had been eliminated. This procedure was repeated three times and eliminated all of the compounds that were not bound to the enzyme. 4. Separation step—The enzyme-ligand complexes retained in the filter were re-suspended in a volume of 10 μL of ultra-pure water then mixed with a volume of 30 μL of acetonitrile in order to denature and precipitate the enzyme and, at the same time, to liberate the ligands. The mixture was centrifuged at 21000 g for 10 min in order to separate the precipitate from the supernatant. 5. Analysis step—Said supernatant was analyzed by liquid phase chromatography coupled to a mass spectrometer. The reference sample was also analyzed in the same manner, using the same analytical conditions.
The UPLC-MS analysis was carried out in accordance with the protocol described in Example 1.

Experiment [2] addresses T1, hyaluronidase originating from bull testicles (type IV-S) (Bos taurus, UniProt Q2YDK3).
T1 construct: hyaluronidase originating from bull testicles (type IV-S); from tissue; host or cells: bull testicles
T1 sequence (Q2YDK3 36-553): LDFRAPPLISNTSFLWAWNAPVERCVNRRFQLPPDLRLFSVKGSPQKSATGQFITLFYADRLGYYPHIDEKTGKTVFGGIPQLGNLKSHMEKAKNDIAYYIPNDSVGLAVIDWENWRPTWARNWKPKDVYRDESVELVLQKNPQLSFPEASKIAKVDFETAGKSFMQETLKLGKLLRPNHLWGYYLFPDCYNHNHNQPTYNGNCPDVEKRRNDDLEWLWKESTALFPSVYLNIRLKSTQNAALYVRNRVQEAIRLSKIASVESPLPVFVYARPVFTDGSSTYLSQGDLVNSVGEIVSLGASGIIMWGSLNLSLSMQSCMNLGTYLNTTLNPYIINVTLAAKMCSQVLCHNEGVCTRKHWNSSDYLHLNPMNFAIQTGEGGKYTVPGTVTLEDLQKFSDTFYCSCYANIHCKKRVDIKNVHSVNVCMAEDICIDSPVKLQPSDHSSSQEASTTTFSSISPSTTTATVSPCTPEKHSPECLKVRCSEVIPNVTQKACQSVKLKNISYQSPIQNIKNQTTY
As to the kind of experiment: Anti-hyaluronidase inhibiting activity, hyaluronic acid as substrate, precipitation with acidic BSA. It is filed as biochemical. Here is the method: A root extract of Morus Alba was prepared in accordance with the protocol described in Example 5. Hyaluronidase catalyzes the hydrolysis of hyaluronic acids into monosaccharides, disaccharides and short oligosaccharides. The measurement of the anti-hyaluronidase inhibiting activity was carried out using hyaluronic acid (HA) as a substrate in order to follow its reduction during the enzymatic reaction, the slope of the reduction of the concentration of HA during the reaction being proportional to the enzymatic activity.
The concentration of HA was measured in accordance with the following principle: in the presence of an acidic solution of bovine serum albumin, HA precipitates. Thus, in the case of the presence of HA, a precipitate is formed and in the case of complete hydrolysis of the HA, no precipitate is observed. Thus, the quantity of precipitation is proportion& to the HA content. […]
In order to follow the enzymatic degradation of the HA, a volume of 50 μl of RM was removed every 15 minutes, mixed with a volume of 250 μL of the solution of acidic BSA (acidic solution of bovine serum albumin: 24 mM sodium acetate, 79 mM acetic add and 0.1% (w/v) bovine serum albumin, pH 3.75) then incubated for 10 min at ambient temperature. The quantity of precipitate formed was then measured using a plate reader (diffusion of light at 600 nm). […]

As for `CC(C)=CCc1c(O)ccc(C(=O)C2C(c3ccc(O)cc3O)CC3(C)CC2c2c(O)cc(-c4cc5ccc(O)cc5o4)cc2O3)c1O` (stereo not shown) [Wittiorumin F, wittiorumin F], in experiment [1], the “Relative affinity (RA) for collagenase” value is on record as 1.1.

On to `CC(C)=CCc1c(O)ccc(C(=O)[C@@H]2CC(C)=C[C@H](c3c(O)cc(O)c4c(=O)c(CC=C(C)C)c(-c5ccc(O)cc5O)oc34)[C@H]2c2ccc(O)cc2O)c1O` [Moracenin A, moracenin A], for which the “Relative affinity (RA) for collagenase” value in experiment [1] was determined as 1.1. Further, in experiment [2], the inhibition (commonly the drop in the measured response relative to a control, in per cent) at 10 µM amounted to 55.1%.

For the molecule `CC(C)=CCc1c(-c2ccc(O)cc2O)oc2c([C@H]3C=C(C)C[C@H](C(=O)c4ccc(O)cc4O)[C@@H]3c3ccc(O)cc3O)c(O)cc(O)c2c1=O` [Moracenin B, moracenin B], the “Relative affinity (RA) for collagenase” value in experiment [1] was 1.0.
